Earlier results as cited in patent US8431577B2, “Crystalline form of eszopiclone, composition, preparation and uses thereof” (Tianjin Tasly Group Co., Ltd., priority 2008, dated 2013).

Conditions: comparative acute toxicity research; cited from earlier work

## CN1CCN(C(=O)O[C@H]2c3nccnc3C(=O)N2c2ccc(Cl)cn2)CC1 [S-zopiclone, (+)-(S)-(4-methylpiperazine-1-carboxylate)(6-(5-chloropyridinyl-2-yl)-7-carbonyl-6,7-dihydro-5-H-pyrrolo[3,4-b]pyrazin-5-yl ester)]
  acute toxicity compared with racemic zopiclone: low toxicity than that of the racemic zopiclone
